{"source": "ChEMBL document CHEMBL5465560", "about": "“Selectivity Literature for EUbOPEN Chemogenomic Library” (2024)", "key": {"[1]": {"target": "T1, Phosphatidylinositol 5-phosphate 4-kinase type-2 gamma (Homo sapiens) (UniProt Q8TBX8)", "T1 sequence (whole entry)": "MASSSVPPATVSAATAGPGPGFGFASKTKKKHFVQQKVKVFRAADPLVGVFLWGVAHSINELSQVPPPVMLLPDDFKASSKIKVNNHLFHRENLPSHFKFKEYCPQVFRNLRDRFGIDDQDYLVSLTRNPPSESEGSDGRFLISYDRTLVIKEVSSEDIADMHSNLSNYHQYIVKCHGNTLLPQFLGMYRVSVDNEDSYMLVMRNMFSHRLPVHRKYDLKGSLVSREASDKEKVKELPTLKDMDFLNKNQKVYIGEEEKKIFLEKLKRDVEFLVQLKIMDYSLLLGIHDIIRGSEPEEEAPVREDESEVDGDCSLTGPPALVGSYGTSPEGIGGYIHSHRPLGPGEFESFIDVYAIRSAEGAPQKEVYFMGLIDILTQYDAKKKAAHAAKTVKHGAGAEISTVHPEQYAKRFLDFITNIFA", "assay": "Selectivity interaction (Kinase panel (KiNativ target engagement assay in Jurkat cells)) EUB0001635a PIP4K2C", "type": "cell-based", "conditions": "Selectivity number of off-targets 0.0, Selectivity number of targets 233.0, Source Knowledge https://www.sciencedirect.com/science/article/pii/S2451945619300674?via%3Dihub, at 1 µM"}, "[2]": {"target": "Homeodomain-interacting protein kinase 3 (Homo sapiens, UniProt Q9H422)", "sequence (Q9H422 whole entry, looked up)": "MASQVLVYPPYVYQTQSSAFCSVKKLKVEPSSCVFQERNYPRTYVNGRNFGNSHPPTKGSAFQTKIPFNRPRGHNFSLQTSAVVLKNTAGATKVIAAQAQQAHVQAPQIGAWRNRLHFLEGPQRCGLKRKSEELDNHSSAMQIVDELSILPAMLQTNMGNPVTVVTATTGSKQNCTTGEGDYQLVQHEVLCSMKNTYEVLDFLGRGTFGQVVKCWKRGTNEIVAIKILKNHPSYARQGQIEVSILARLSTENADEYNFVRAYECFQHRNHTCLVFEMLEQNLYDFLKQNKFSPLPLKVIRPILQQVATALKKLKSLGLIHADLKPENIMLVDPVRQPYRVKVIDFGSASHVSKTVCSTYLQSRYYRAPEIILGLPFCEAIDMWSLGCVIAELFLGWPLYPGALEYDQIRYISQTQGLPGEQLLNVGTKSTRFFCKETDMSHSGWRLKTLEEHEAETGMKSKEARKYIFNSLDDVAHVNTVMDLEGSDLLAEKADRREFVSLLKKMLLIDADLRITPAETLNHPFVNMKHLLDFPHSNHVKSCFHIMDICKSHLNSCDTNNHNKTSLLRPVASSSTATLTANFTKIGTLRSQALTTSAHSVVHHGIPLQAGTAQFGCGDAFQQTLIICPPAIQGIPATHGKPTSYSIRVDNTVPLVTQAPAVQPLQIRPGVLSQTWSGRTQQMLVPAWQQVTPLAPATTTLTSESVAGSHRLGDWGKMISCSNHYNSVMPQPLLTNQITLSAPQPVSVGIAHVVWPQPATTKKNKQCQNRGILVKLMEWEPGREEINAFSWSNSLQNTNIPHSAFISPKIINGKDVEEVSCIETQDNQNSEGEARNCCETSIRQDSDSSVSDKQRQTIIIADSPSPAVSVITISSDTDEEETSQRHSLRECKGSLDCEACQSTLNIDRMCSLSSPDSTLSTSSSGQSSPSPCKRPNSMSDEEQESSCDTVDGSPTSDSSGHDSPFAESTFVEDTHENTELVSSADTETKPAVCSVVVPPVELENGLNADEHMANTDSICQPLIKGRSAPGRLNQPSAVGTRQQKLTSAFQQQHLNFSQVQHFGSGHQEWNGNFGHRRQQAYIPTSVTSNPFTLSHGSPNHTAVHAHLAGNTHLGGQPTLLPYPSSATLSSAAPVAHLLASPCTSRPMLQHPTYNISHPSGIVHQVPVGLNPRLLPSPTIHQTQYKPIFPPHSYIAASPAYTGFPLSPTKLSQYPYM", "assay": "Selectivity interaction (KinomeScan (DiscoverX)) EUB0000595a HIPK3", "conditions": "at 10 µM"}, "[3]": {"target": "Mitogen-activated protein kinase kinase kinase 10 (Homo sapiens) (UniProt Q02779)", "sequence (Q02779 whole entry, looked up)": "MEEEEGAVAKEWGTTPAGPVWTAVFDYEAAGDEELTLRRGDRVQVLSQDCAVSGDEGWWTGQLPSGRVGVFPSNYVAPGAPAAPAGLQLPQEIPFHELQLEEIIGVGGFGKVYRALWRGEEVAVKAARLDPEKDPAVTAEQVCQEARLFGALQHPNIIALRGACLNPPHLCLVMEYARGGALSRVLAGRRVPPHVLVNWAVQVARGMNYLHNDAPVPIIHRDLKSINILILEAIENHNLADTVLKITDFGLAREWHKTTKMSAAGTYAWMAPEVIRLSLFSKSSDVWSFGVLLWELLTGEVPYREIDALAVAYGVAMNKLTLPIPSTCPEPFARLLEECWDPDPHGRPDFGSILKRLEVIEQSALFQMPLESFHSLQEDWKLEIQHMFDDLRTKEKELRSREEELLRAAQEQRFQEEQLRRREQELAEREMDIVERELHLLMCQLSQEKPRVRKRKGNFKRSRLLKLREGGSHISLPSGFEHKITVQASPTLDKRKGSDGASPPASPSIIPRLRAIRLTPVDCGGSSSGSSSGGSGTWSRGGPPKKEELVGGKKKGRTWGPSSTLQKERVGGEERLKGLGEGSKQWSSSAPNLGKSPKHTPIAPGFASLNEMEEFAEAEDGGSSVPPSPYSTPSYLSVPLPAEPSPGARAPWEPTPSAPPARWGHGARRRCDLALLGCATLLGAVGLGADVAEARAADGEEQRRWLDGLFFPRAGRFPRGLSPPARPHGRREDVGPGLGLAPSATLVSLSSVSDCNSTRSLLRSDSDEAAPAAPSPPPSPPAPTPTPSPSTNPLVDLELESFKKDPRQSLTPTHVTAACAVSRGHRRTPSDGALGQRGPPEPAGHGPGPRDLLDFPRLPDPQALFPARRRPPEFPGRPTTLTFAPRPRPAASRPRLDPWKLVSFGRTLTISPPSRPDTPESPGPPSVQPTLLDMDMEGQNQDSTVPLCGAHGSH", "assay": "Selectivity interaction (KinomeScan (DiscoverX)) EUB0001079a MAP3K10", "conditions": "at 1 µM"}, "[4]": {"target": "N-lysine methyltransferase SMYD2 (Homo sapiens) (UniProt Q9NRG4)", "sequence (Q9NRG4 whole entry)": "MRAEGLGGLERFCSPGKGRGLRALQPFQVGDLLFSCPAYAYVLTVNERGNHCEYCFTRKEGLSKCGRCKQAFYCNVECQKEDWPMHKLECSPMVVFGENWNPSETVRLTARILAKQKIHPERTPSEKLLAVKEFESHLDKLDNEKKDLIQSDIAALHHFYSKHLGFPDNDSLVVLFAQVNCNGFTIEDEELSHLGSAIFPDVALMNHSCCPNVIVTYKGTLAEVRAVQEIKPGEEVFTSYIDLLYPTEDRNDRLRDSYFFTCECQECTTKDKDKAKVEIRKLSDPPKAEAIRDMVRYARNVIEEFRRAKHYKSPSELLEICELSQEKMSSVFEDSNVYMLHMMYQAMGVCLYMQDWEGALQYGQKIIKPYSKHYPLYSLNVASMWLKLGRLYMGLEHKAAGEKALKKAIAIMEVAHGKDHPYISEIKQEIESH", "assay": "Selectivity interaction (Transferase panel (protein, RNA, and DNA methyltransferases. and EP300 (acetyltransferase))) EUB0000270b SMYD2"}, "[5]": {"target": "Mitogen-activated protein kinase 10 (Homo sapiens, UniProt P53779)", "sequence (P53779 whole entry)": "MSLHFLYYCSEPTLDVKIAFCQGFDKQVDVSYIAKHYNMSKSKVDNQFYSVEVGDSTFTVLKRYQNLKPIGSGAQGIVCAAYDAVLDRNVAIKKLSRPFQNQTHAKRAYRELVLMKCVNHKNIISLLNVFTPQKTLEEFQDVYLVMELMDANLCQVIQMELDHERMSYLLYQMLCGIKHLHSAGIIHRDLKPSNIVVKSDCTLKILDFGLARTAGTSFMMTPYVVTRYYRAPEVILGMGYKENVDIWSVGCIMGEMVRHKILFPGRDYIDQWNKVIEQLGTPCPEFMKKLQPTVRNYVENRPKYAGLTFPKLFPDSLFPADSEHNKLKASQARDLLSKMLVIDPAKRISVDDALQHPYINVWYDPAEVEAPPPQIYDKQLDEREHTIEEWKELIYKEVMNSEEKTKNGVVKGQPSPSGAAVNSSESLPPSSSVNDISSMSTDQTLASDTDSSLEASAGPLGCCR", "assay": "Selectivity interaction (KinomeScan (DiscoverX)) EUB0001049a MAPK10", "conditions": "at 1 µM"}, "[6]": {"target": "T2, Megakaryocyte-associated tyrosine-protein kinase (Homo sapiens) (UniProt P42679)", "T2 sequence (whole entry)": "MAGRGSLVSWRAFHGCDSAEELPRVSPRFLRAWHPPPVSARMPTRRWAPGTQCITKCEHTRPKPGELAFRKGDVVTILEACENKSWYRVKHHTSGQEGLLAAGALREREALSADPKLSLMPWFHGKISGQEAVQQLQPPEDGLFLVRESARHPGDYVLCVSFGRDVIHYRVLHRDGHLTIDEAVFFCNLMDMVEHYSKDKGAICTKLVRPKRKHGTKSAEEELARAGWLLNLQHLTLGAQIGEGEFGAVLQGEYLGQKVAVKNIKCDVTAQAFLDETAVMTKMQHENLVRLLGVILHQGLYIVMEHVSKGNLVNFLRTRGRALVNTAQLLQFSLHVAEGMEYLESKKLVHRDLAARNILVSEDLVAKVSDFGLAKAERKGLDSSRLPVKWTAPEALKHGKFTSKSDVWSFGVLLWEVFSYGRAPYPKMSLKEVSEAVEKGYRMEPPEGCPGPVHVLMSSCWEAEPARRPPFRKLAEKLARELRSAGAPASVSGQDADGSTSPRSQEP", "assay": "Selectivity interaction (KinomeScan (DiscoverX)) EUB0001049a MATK", "conditions": "at 1 µM"}, "[7]": {"target": "BDNF/NT-3 growth factors receptor (Homo sapiens) (UniProt Q16620)", "sequence (Q16620 32-822 limits assumed)": "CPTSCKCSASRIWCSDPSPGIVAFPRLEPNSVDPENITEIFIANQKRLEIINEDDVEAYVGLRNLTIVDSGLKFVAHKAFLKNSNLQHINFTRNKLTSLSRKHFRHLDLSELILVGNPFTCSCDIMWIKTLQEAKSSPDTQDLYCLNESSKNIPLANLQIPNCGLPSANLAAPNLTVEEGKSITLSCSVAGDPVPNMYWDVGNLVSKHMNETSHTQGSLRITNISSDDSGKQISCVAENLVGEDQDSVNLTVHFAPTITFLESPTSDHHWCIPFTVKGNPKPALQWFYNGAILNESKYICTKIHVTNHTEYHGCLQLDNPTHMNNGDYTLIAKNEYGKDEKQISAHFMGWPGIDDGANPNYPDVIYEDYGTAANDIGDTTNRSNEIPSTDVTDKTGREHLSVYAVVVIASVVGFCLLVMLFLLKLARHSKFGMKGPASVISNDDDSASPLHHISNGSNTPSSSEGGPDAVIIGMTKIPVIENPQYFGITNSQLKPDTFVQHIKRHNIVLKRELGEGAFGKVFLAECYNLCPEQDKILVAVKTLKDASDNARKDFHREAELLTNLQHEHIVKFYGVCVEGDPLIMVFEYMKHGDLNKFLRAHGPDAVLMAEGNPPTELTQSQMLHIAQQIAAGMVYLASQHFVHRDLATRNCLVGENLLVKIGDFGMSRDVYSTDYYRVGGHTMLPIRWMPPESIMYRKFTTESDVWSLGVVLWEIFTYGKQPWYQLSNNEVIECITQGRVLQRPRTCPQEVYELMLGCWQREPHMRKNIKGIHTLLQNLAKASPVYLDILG", "assay": "Selectivity interaction (Millipore kinase profiler) EUB0000124b NTRK2", "conditions": "at 10 µM"}, "[8]": {"target": "T3, Receptor-type tyrosine-protein kinase FLT3 (Homo sapiens, UniProt P36888)", "T3 sequence (P36888 whole entry)": "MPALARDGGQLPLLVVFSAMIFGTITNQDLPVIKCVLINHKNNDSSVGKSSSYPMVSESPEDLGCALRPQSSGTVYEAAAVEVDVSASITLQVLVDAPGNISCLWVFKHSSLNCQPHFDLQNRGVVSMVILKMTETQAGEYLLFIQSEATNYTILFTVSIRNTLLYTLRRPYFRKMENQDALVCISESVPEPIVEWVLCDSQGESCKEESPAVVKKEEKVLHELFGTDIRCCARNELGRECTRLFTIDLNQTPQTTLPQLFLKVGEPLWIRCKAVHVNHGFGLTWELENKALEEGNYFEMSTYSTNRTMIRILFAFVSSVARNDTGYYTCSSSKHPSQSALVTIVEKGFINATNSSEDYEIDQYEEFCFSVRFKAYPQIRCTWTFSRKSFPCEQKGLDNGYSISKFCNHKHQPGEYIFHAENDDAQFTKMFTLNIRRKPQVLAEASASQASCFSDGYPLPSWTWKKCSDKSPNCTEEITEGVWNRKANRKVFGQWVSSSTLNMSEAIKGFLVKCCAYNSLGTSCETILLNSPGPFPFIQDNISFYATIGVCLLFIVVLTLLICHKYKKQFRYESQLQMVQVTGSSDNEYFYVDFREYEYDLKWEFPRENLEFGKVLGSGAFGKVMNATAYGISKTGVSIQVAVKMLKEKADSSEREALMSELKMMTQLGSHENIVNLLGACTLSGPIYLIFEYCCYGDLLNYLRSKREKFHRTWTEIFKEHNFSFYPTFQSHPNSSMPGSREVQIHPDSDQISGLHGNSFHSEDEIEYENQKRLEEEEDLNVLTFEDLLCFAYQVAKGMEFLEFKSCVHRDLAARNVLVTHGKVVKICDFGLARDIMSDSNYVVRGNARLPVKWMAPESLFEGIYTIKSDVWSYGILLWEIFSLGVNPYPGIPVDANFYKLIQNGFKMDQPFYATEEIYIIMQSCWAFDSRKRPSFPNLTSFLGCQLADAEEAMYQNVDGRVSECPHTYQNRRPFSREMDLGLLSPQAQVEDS"}, "[9]": {"target": "T4, Serine/threonine-protein kinase 17B (Homo sapiens) (UniProt O94768)", "T4 sequence (whole entry)": "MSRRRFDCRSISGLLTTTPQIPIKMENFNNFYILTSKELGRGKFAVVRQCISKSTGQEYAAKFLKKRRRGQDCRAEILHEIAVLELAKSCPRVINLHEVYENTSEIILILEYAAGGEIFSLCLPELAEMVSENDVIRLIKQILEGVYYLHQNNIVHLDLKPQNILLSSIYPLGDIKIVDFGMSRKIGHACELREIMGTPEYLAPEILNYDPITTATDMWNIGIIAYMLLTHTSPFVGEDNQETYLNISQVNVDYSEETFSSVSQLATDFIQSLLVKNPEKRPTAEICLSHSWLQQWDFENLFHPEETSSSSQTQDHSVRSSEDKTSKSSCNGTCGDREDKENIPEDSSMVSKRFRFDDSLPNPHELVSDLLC", "assay": "Selectivity interaction (KinomeScan (DiscoverX)) EUB0000607a STK17B", "conditions": "at 10 µM"}}, "data": [{"molecule": "C=CC(=O)Nc1ccc(C(=O)Nc2[nH]nc3c2CN(C(=O)N[C@H](CN(C)C)c2ccccc2)C3(C)C)cc1", "values": [{"measurement": "% of engagement", "setting": "[1]", "result": -6.5, "unit": "%"}]}, {"molecule": "COCC(=O)NC/C=C/c1ccc2ncnc(Nc3ccc(Oc4ccc(C)nc4)c(C)c3)c2c1", "note": "[CP-724714]", "values": [{"measurement": "% of control", "setting": "[2]", "result": 100, "unit": "%"}]}, {"molecule": "Nc1cnc(N2CCc3cc(S(=O)(=O)Nc4c(F)cc(Cl)cc4F)cc(N4CCCC4=O)c32)nc1", "note": "[TP-020n]", "values": [{"measurement": "% of control", "setting": "[3]", "result": 75, "unit": "%"}]}, {"molecule": "Cc1cc(CN)cc(C)c1-c1ncn(C)c1-c1cncn1C", "values": [{"measurement": "% activity", "setting": "[4]; at 1 µM", "result": "> 90", "unit": "%"}, {"measurement": "% activity", "setting": "[4]; at 10 µM", "result": "> 80", "unit": "%"}]}, {"molecule": "COc1cc(Nc2nc(C)cc(-c3cnn4nc(OC)ccc34)n2)cc(C(F)(F)F)c1", "values": [{"measurement": "% of control", "setting": "[5]", "result": 77, "unit": "%"}, {"measurement": "% of control", "setting": "[6]", "result": 100, "unit": "%"}]}, {"molecule": "CC(=O)Nc1cccc(-n2c(=O)n(C3CC3)c(=O)c3c(Nc4ccc(I)cc4F)n(C)c(=O)c(C)c32)c1", "values": [{"measurement": "% of control", "setting": "[7]", "result": 120, "unit": "%"}]}, {"molecule": "CCc1cccc(CC)c1NC(=O)c1nn(C)c2c1CCc1cnc(Nc3ccc(C(=O)NC4CCN(C)CC4)cc3OC(F)(F)F)nc1-2", "values": [{"measurement": "IC50", "setting": "[8]", "result": "> 10", "unit": "µM"}]}, {"molecule": "CNC(=O)Nc1ccc(-c2nc(N3CC4CCC(C3)O4)c3cnn(C4CCC5(CC4)OCCO5)c3n2)cc1", "values": [{"measurement": "% of control", "setting": "[9]", "result": 100, "unit": "%"}]}]}
